Patent US10576076B2 (priority 2015, dated 2020)

Assays:
[1] = tested on: influenza vaccine strains; assay: Clinical study in elderly volunteers: response to influenza vaccination after 6 weeks of mTOR inhibitor dosing; type: in vivo, human; conditions: 4 weeks after vaccination, 2 week drug-free break
Description: In a clinical study elderly volunteers were treated for 6 weeks daily with one of four mTOR inhibitor dosing regimens: 0.5 mg/day RAD001, 0.1 mg/day RAD001, 10 mg/day BEZ235 or 0.1 mg/day RAD001+10 mg/day BEZ235.
After being dosed for 6 weeks, the elderly volunteers were given a 2 week drug-free break and then received influenza vaccination. […] All dosing regimens were relatively well tolerated. […] However the majority of these adverse events were of mild severity, transient and resolved despite continued dosing of mTOR inhibitors.

[2] = target: mTOR (Homo sapiens, UniProt P42345); conditions: low concentration; cited from earlier work
[3] = tested on: PI3K/mTOR; conditions: relatively higher concentrations; cited from earlier work

## CO[C@H]1C[C@@H]2CC[C@@H](C)[C@@](O)(O2)C(=O)C(=O)N2CCCC[C@H]2C(=O)O[C@H]([C@H](C)C[C@@H]2CC[C@@H](OCCO)[C@H](OC)C2)CC(=O)[C@H](C)/C=C(\C)[C@@H](O)[C@@H](OC)C(=O)[C@H](C)C[C@H](C)/C=C/C=C/C=C/1C [RAD001, (1R,9S,12S,15R,16E,18R,19R,21R,23S,24E,26E,28E,30S,32S,35R)-1,18-dihydroxy-12-{(1R)-2-[(1S,3R,4R)-4-(2-hydroxyethoxy)-3-methoxycyclohexyl]-1-methylethyl}-19,30-dimethoxy-15,17,21,23,29,35-hexamethyl-11,36-dioxa-4-aza-tricyclo[30.3.1.04,9]hexatriaconta-16,24,26,28-tetraene-2,3,10,14,20-pentaone]
[1]; RAD001 0.1 mg/day monotherapy for 6 weeks
  vaccine strains with GMT ratio as compared to placebo >1.2: ⅓
[1]; RAD001 0.5 mg/day monotherapy for 6 weeks
  vaccine strains with GMT ratio as compared to placebo >1.2: ⅓

## Cn1c(=O)n(-c2ccc(C(C)(C)C#N)cc2)c2c3cc(-c4cnc5ccccc5c4)ccc3ncc21 [BEZ235, 2-methyl-2-[4-(3-methyl-2-oxo-8-quinolin-3-yl-2,3-dihydro-imidazo[4,5-c]quinolin-1-yl)-phenyl]-propionitrile]
[2]
  concentration at which mTOR inhibition predominates: less than 100 nmol/L
[3]
  concentration at which dual PI3K/mTOR inhibition occurs: approximately 500 nmol/L
[1]; BEZ235 10 mg/day monotherapy for 6 weeks
  vaccine strains with GMT ratio as compared to placebo >1.2: 0/3
